Entries after “also recorded” stand apart in the source; their conditions may differ.
System: upper outer arm or back of each subject
Test: Maximization assay (human patch test: induction, rest and challenge phases)
Type: in vivo
Set-up: key to Maximization Testing Results: 72-Hour Grading / Maximization Testing Results: 48-Hour Grading: 0=not sensitized; 1=mild sensitization (viz. erythema and a little edema); 2=moderate sensitization (erythema with infiltration, raised, spreading beyond the borders of the patch, with or without vesiculation); 3=strong sensitization (large vesicula-bullous reaction)
Settings: for Maximization Testing Results: 48-Hour Grading: 48 hours after challenge patch; for Maximization Testing Results: 72-Hour Grading: 72 hours after challenge patch
Experimental: A group of 26 subjects were tested to compare the activity of lactic acid retinoate (single conjugate) with ethyl lactate retinoate (double conjugate). As a general protocol, a patch (Webril cotton with 0.05 ml of a 5.0% aqueous solution) was applied to the upper outer arm or back of each subject. The entire test was composed of (1) an induction phase (2) a rest phase and (3) a challenge phase.
The scoring scale was as follows: • 0=not sensitized; • 1=mild sensitization (viz. erythema and a little edema); • 2=moderate sensitization (erythema with infiltration, raised, spreading beyond the borders of the patch, with or without vesiculation); and • 3=strong sensitization (large vesicula-bullous reaction).

[1] = Subject Number 26 (one volunteer)

Structure (SMILES) | share of the sample population with any skin irritation or allergic reactions (26 subjects) [%] | instances of contact allergy (48 or 72 hours after application of the challenge patches) | Maximization Testing Results: 48-Hour Grading (Subject Number 01-26) | Maximization Testing Results: 72-Hour Grading (Subject Number 01-26) | share of the sample population with a delayed skin irritation reaction presumptive of contact allergy (25 panelists completed) [%] | Maximization Testing Results: 48-Hour Grading (Subject Number 01-24) | Maximization Testing Results: 72-Hour Grading (Subject Number 01-24) | Maximization Testing Results: 48-Hour Grading [1] | Maximization Testing Results: 72-Hour Grading [1] | adverse or unexpected reactions in the panelists (induction phase) | skin irritation at the induction patch (leading to method deviation) (induction phase)
CCOC(=O)[C@@H](C)OC(=O)/C=C(C)/C=C/C=C(C)/C=C/C1=C(C)CCCC1(C)C [ethyl lactate retinoate] | 0 | No instances of contact allergy were recorded | Subject Number: 01-26, 48-Hour Grading: 0 | Subject Number: 01-26, 72-Hour Grading: 0 |  |  |  |  |  |  | 
CC1=C(/C=C/C(C)=C/C=C/C(C)=C/C(=O)OC(C)C(=O)O)C(C)(C)CCC1 (centres unmarked) [lactyl retinoate, 2-(((2E,4E,6E,8E)-3,7-dimethyl-9-(2,6,6-trimethylcyclohex-1-en-1-yl)nona-2,4,6,8-tetraenoyl)oxy)propanoic acid] |  |  |  |  | 4 | Subject Number: 01-24, 48-Hour Grading: 0 | Subject Number: 01-24, 72-Hour Grading: 0 | Subject Number: 26, 48-Hour Grading: 1 | persisted at 72 hours (score 2); also recorded: Subject Number: 26, 72-Hour Grading: 2 | No adverse or unexpected reactions were | many subjects had skin irritation sufficient enough to change protocol application
